pIC50: −log10 of the molar value. Active and inactive are the calls of the source. No cut-off for these calls is given here.
Tests used:
Dipeptidyl peptidase 4 = Dipeptidyl peptidase 4 (Homo sapiens, UniProt P27487)
Description: Inhibition of DPP4 by chemical luminescent assay

Mus musculus = experiment: Antidiabetic activity in ICR mouse assessed as deduction of glucose excursion at 0.3 to 10 mg/kg, po administered 30 mins before oral glucose challenge measured up to 120 mins by oral glucose tolerance test; assay type: functional, organism-based

Chain of Dipeptidyl peptidase 4 (P27487 whole entry): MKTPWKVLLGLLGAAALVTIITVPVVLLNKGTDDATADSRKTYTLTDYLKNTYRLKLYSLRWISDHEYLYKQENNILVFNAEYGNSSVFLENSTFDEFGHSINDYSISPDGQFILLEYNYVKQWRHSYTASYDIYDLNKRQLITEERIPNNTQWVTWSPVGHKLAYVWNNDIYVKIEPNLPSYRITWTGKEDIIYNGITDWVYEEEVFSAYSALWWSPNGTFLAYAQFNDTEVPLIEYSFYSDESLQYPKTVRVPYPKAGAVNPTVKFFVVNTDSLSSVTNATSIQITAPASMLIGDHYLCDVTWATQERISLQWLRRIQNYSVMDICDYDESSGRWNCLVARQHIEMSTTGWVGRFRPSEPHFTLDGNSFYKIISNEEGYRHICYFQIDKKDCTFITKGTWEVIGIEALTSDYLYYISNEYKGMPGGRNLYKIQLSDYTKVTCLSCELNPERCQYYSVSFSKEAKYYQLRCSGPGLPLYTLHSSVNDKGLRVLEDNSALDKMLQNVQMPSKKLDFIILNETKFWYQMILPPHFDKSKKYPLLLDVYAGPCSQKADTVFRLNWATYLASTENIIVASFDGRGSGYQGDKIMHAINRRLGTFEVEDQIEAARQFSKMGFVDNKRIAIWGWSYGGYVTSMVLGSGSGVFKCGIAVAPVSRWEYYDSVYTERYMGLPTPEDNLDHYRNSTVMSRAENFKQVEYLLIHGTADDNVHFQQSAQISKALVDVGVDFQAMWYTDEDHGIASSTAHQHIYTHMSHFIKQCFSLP

Row | SMILES | pIC50 (Dipeptidyl peptidase 4) | Activity (Mus musculus)
1 | CC(C)NC(=O)O[C@H]1C[C@H]2C[C@@H](NCC(=O)N3CCC[C@H]3C#N)C[C@H]2C1 | 6.69 | 
2 | N#C[C@@H]1CCCN1C(=O)CN[C@@H]1C[C@@H]2C[C@H](OC(=O)Nc3ccccc3)C[C@@H]2C1 | 6.92 | 
3 | CO[C@H]1C[C@H]2C[C@@H](NCC(=O)N3CCC[C@H]3C#N)C[C@H]2C1 |  | Active
4 | N#C[C@@H]1CCCN1C(=O)CN[C@H]1C[C@H]2C[C@@H](O)C[C@H]2C1 |  | Active
5 | CC(C)(C)NC(=O)O[C@H]1C[C@H]2C[C@@H](NCC(=O)N3CCC[C@H]3C#N)C[C@H]2C1 | 6.49 | 

From ChEMBL document CHEMBL1158615, “Synthesis and biological evaluation of bicyclo[3.3.0] octane derivatives as dipeptidyl peptidase 4 inhibitors for the treatment of type 2 diabetes” (Bioorg Med Chem Lett, 2010)
